In US9695155B2, “Herbicidal substituted pyrimidinyloxy benzene compounds” (E. I. DU PONT DE NEMOURS AND COMPANY, priority 2013, dated 2017):

How the values were obtained:
large (Lg) crabgrass [1] = experiment: Test A preemergence; assay type: in vivo, Digitaria sanguinalis; details: 0 to 100 scale where 0 is no effect and 100 is complete control; for Plant response rating, Crabgrass, Large: 125 g ai/ha; for Crabgrass, Large plant response rating: 500 g ai/ha
Method in brief: (§1)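 Visual 0–100 rating (100 = complete control) taken about 10 d post-treatment relative to untreated checks. Preemergence: directed soil spray on sown loam/sand pots. Postemergence: seedlings 2–10 cm, 1–2 leaf. Non-phytotoxic solvent formulation with surfactant.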

giant foxtail [2] = experiment: Test A preemergence; assay type: in vivo, Setaria faberii; details: 0 to 100 scale where 0 is no effect and 100 is complete control; for Plant response rating, Foxtail, Giant: 125 g ai/ha; for Foxtail, Giant plant response rating: 500 g ai/ha
Method in brief: as §1

morningglory [3] = experiment: Test A preemergence; assay type: in vivo, Ipomoea spp.; details: for Morningglory plant response rating (0 to 100 scale): 125 g ai/ha; for Morningglory plant response rating: 500 g ai/ha, 0 to 100 scale where 0 is no effect and 100 is complete control
Method in brief: as §1

wheat = experiment: Test A preemergence; assay type: in vivo, Triticum aestivum; details: for Wheat plant response rating (0 to 100 scale): 125 g ai/ha; for Wheat plant response rating: 500 g ai/ha, 0 to 100 scale where 0 is no effect and 100 is complete control
Method in brief: as §1

large (Lg) crabgrass [4] = experiment: Test A postemergence; assay type: in vivo, Digitaria sanguinalis; details: 0 to 100 scale where 0 is no effect and 100 is complete control; for Crabgrass, Large plant response rating: 125 g ai/ha; for Plant response rating, Crabgrass, Large: 500 g ai/ha
Method in brief: as §1

giant foxtail [5] = experiment: Test A postemergence; assay type: in vivo, Setaria faberii; details: 0 to 100 scale where 0 is no effect and 100 is complete control; for Foxtail, Giant plant response rating: 125 g ai/ha; for Plant response rating, Foxtail, Giant: 500 g ai/ha
Method in brief: as §1

velvetleaf = experiment: Test A postemergence; assay type: in vivo, Abutilon theophrasti; details: 0 to 100 scale where 0 is no effect and 100 is complete control; for Velvetleaf plant response rating: 125 g ai/ha; for Plant response rating, Velvetleaf: 500 g ai/ha
Method in brief: as §1

corn = experiment: Test A postemergence; assay type: in vivo, Zea mays; details: 0 to 100 scale where 0 is no effect and 100 is complete control; for Corn plant response rating: 125 g ai/ha; for Plant response rating, Corn: 500 g ai/ha
Method in brief: as §1

rice = experiment: Test B flooded paddy test; assay type: in vivo, Oryza sativa; details: Flood, 250 g ai/ha; 0 to 100 scale where 0 is no effect and 100 is complete control
Method in brief: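 Compound added straight to paddy water, with pots kept flooded 3 cm above soil, on plants grown to the 2-leaf stage. Visual scoring 0-100 (100 = complete control) against untreated controls after 13 to 15 greenhouse days.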

Italian ryegrass = experiment: Test C postemergence; assay type: in vivo, Lolium multiflorum; details: for Plant response rating (0 to 100), Ryegrass, Italian: 16 g ai/ha, 0 is no effect, 100 is complete control; for Ryegrass, Italian plant response rating: 31 g ai/ha, 13 to 15 days; for Ryegrass, Italian plant response rating / Plant response rating, Ryegrass, Italian: scale 0 to 100 (0 no effect, 100 complete control)
Method in brief: (§2)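 Visual ratings on a 0–100 scale (100 = complete control) were made versus untreated controls after 13–15 greenhouse days. Chemicals in a surfactant-containing non-phytotoxic solvent were applied either preemergence to seeds in loam–sand soil or postemergence to 1- to 4-leaf plants 2–18 cm tall.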

morningglory [6] = experiment: Test C postemergence; assay type: in vivo, Ipomoea coccinea; details: for Plant response rating (0 to 100), Morningglory: 16 g ai/ha, 0 is no effect, 100 is complete control; for Morningglory plant response rating: 31 g ai/ha, 13 to 15 days; for Morningglory plant response rating / Plant response rating, Morningglory: scale 0 to 100 (0 no effect, 100 complete control)
Method in brief: as §2

yellow nutsedge = experiment: Test C postemergence; assay type: in vivo, Cyperus esculentus; details: for Plant response rating (0 to 100), Nutsedge, Yellow: 16 g ai/ha, 0 is no effect, 100 is complete control; for Nutsedge, Yellow plant response rating: 31 g ai/ha, 13 to 15 days; for Nutsedge, Yellow plant response rating / Plant response rating, Nutsedge, Yellow: scale 0 to 100 (0 no effect, 100 complete control)
Method in brief: as §2

pigweed = experiment: Test C postemergence; assay type: in vivo, Amaranthus retroflexus; details: for Plant response rating (0 to 100), Pigweed: 16 g ai/ha, 0 is no effect, 100 is complete control; for Pigweed plant response rating: 31 g ai/ha, 13 to 15 days; for Pigweed plant response rating / Plant response rating, Pigweed: scale 0 to 100 (0 no effect, 100 complete control)
Method in brief: as §2

kochia = experiment: Test C postemergence; assay type: in vivo, Kochia scoparia; details: for Plant response rating (0 to 100), Kochia: 16 g ai/ha, 0 is no effect, 100 is complete control; for Kochia plant response rating: 31 g ai/ha, 13 to 15 days; for Kochia plant response rating / Plant response rating, Kochia: scale 0 to 100 (0 no effect, 100 complete control)
Method in brief: as §2

wild oat = experiment: Test C postemergence; assay type: in vivo, Avena fatua; details: for Plant response rating (0 to 100), Oat, Wild: 16 g ai/ha, 0 is no effect, 100 is complete control; for Oat, Wild plant response rating: 31 g ai/ha, 13 to 15 days; for Oat, Wild plant response rating / Plant response rating, Oat, Wild: scale 0 to 100 (0 no effect, 100 complete control)
Method in brief: as §2

[7] = 125 g ai/ha, postemergence, visual rating

FC(F)c1cccc(Oc2ncc(Br)cn2)c1-n1cc(C(F)(F)F)cn1 [Compound 163]
30: Crabgrass, Large plant response rating (large (Lg) crabgrass [4]) | Corn plant response rating (corn)
10: Wheat plant response rating (wheat) | Plant response rating, Ryegrass, Italian (Italian ryegrass; [7]) | Plant response rating, Oat, Wild (wild oat; Postemergence, 62 g ai/ha)
70: Morningglory plant response rating (morningglory [3])
20: Plant response rating (0 to 100), Morningglory (morningglory [6]; postemergence) | Plant response rating, Oat, Wild (wild oat; [7])
50: Foxtail, Giant plant response rating (giant foxtail [5]) | Plant response rating, Corn (corn) | Morningglory plant response rating (morningglory [6]; postemergence, visual rating)
85: Pigweed plant response rating (pigweed; postemergence, visual rating)
25: Plant response rating, Rice (rice)
90: Plant response rating, Crabgrass, Large (large (Lg) crabgrass [4]) | Plant response rating, Foxtail, Giant (giant foxtail [5]) | Plant response rating, Morningglory (morningglory [6]; [7]) | Plant response rating, Pigweed (pigweed; [7]) | Plant response rating, Pigweed (pigweed; Postemergence, 62 g ai/ha) | Plant response rating (0 to 100), Kochia (kochia; postemergence) | Kochia plant response rating (kochia; postemergence, visual rating)
0: Morningglory plant response rating (0 to 100 scale) (morningglory [3]) | Wheat plant response rating (0 to 100 scale) (wheat) | Plant response rating (0 to 100), Ryegrass, Italian (Italian ryegrass; postemergence) | Ryegrass, Italian plant response rating (Italian ryegrass; postemergence, visual rating) | Plant response rating, Ryegrass, Italian (Italian ryegrass; Postemergence, 62 g ai/ha) | Plant response rating (0 to 100), Oat, Wild (wild oat; postemergence)
80: Plant response rating (0 to 100), Pigweed (pigweed; postemergence)
65: Plant response rating, Morningglory (morningglory [6]; Postemergence, 62 g ai/ha)
5: Plant response rating (0 to 100), Nutsedge, Yellow (yellow nutsedge; postemergence) | Nutsedge, Yellow plant response rating (yellow nutsedge; postemergence, visual rating) | Plant response rating, Nutsedge, Yellow (yellow nutsedge; [7]) | Plant response rating, Nutsedge, Yellow (yellow nutsedge; Postemergence, 62 g ai/ha) | Oat, Wild plant response rating (wild oat; postemergence, visual rating)
100: Plant response rating, Crabgrass, Large (large (Lg) crabgrass [1]) | Crabgrass, Large plant response rating (large (Lg) crabgrass [1]) | Plant response rating, Foxtail, Giant (giant foxtail [2]) | Foxtail, Giant plant response rating (giant foxtail [2]) | Velvetleaf plant response rating (velvetleaf) | Plant response rating, Velvetleaf (velvetleaf) | Plant response rating, Kochia (kochia; [7]) | Plant response rating, Kochia (kochia; Postemergence, 62 g ai/ha)

Fc1cnc(Oc2cccc(C(F)F)c2-n2cc(C(F)(F)F)cn2)nc1 [Compound 164]
55: Plant response rating, Morningglory (morningglory [6]; Postemergence, 62 g ai/ha)
5: Plant response rating (0 to 100), Nutsedge, Yellow (yellow nutsedge; postemergence) | Nutsedge, Yellow plant response rating (yellow nutsedge; postemergence, visual rating) | Plant response rating, Nutsedge, Yellow (yellow nutsedge; [7]) | Plant response rating, Nutsedge, Yellow (yellow nutsedge; Postemergence, 62 g ai/ha) | Oat, Wild plant response rating (wild oat; postemergence, visual rating) | Plant response rating, Oat, Wild (wild oat; Postemergence, 62 g ai/ha)
40: Corn plant response rating (corn)
15: Plant response rating, Oat, Wild (wild oat; [7])
100: Plant response rating, Crabgrass, Large (large (Lg) crabgrass [1]) | Crabgrass, Large plant response rating (large (Lg) crabgrass [1]) | Foxtail, Giant plant response rating (giant foxtail [2]) | Morningglory plant response rating (morningglory [3]) | Plant response rating, Crabgrass, Large (large (Lg) crabgrass [4]) | Plant response rating, Foxtail, Giant (giant foxtail [5]) | Velvetleaf plant response rating (velvetleaf) | Plant response rating, Velvetleaf (velvetleaf)
20: Wheat plant response rating (0 to 100 scale) (wheat)
90: Plant response rating, Foxtail, Giant (giant foxtail [2]) | Wheat plant response rating (wheat) | Foxtail, Giant plant response rating (giant foxtail [5]) | Plant response rating, Corn (corn) | Kochia plant response rating (kochia; postemergence, visual rating) | Plant response rating, Kochia (kochia; Postemergence, 62 g ai/ha)
50: Plant response rating (0 to 100), Pigweed (pigweed; postemergence)
80: Morningglory plant response rating (0 to 100 scale) (morningglory [3]) | Crabgrass, Large plant response rating (large (Lg) crabgrass [4]) | Plant response rating, Morningglory (morningglory [6]; [7]) | Plant response rating, Pigweed (pigweed; [7]) | Plant response rating (0 to 100), Kochia (kochia; postemergence)
95: Plant response rating, Kochia (kochia; [7])
35: Plant response rating (0 to 100), Morningglory (morningglory [6]; postemergence) | Morningglory plant response rating (morningglory [6]; postemergence, visual rating)
0: Plant response rating, Rice (rice) | Plant response rating (0 to 100), Ryegrass, Italian (Italian ryegrass; postemergence) | Ryegrass, Italian plant response rating (Italian ryegrass; postemergence, visual rating) | Plant response rating, Ryegrass, Italian (Italian ryegrass; [7]) | Plant response rating, Ryegrass, Italian (Italian ryegrass; Postemergence, 62 g ai/ha) | Plant response rating (0 to 100), Oat, Wild (wild oat; postemergence)
75: Pigweed plant response rating (pigweed; postemergence, visual rating) | Plant response rating, Pigweed (pigweed; Postemergence, 62 g ai/ha)
